Data as given in the supplement of paper PMC10307832.

Key:
Assay in all cases: relative viability (nuclei count vs DMSO), 5 days (fraction); higher = more cells survive
EKVX = tested on: EKVX
How it was run: (§1)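 Nuclei were stained with Hoechst during a one-step fixation (final 0.05% Triton X-100, 1% formaldehyde, 1 ug/ml Hoechst) carried out 5 days after dosing, then counted on 4× images. The cells, lung cancer lines in 1536-well plates, had been dosed by pin tool the day after seeding with one drug alone or a fixed anchor-drug dose plus five library-drug doses (not always all listed) in √10 steps. Relative viability is the nuclei count in treated wells divided by that in vehicle wells, and each value is the median of duplicate plates.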

NCI-H661 = tested on: NCI-H661
How it was run: as §1

201T = tested on: 201T
How it was run: as §1

CAL-12T = tested on: CAL-12T
How it was run: as §1

NCI-H1666 = tested on: NCI-H1666
How it was run: as §1

NCI-H2170 = tested on: NCI-H2170
How it was run: as §1

SW 900 = tested on: SW 900
How it was run: as §1

BEN = tested on: BEN
How it was run: as §1

LOU-NH91 = tested on: LOU-NH91
How it was run: as §1

HARA = tested on: HARA
How it was run: as §1

NCI-H460 = tested on: NCI-H460
How it was run: as §1

NCI-H2009 = tested on: NCI-H2009
How it was run: as §1

NCI-H727 = tested on: NCI-H727
How it was run: as §1

NCI-H1437 = tested on: NCI-H1437
How it was run: as §1

PC-14 = tested on: PC-14
How it was run: as §1

NCI-H3122 = tested on: NCI-H3122
How it was run: as §1

NCI-H1650 = tested on: NCI-H1650
How it was run: as §1

LK-2 = tested on: LK-2
How it was run: as §1

COR-L 105 = tested on: COR-L 105
How it was run: as §1

NCI-H441 = tested on: NCI-H441
How it was run: as §1

ABC-1 = tested on: ABC-1
How it was run: as §1

`COc1cc2nccc(Oc3ccc(NC(=O)Nc4cc(C)on4)c(Cl)c3)c2cc1OC` [Tivozanib] + CCNC(=O)c1noc(-c2cc(C(C)C)c(O)cc2O)c1-c1ccc(CN2CCOCC2)cc1 [Luminespib] (partner 0.01 µM) showed a relative viability (EKVX; first compound 0.005 µM) of 0.856, a relative viability (EKVX; first compound 0.01581 µM) of 0.834 and a relative viability (EKVX; first compound 0.05 µM) of 0.879. The relative viability (EKVX; first compound 0.1581 µM) was 0.908, the relative viability (EKVX; first compound 0.5 µM) was 0.847 and the relative viability (NCI-H661; first compound 0.005 µM) was 0.958. It also gave a relative viability (NCI-H661; first compound 0.01581 µM) of 0.956, a relative viability (NCI-H661; first compound 0.05 µM) of 0.982 and a relative viability (NCI-H661; first compound 0.1581 µM) of 0.998. For the same molecule, the relative viability (NCI-H661; first compound 0.5 µM) was 0.953, the relative viability (201T; first compound 0.005 µM) was 1.06 and the relative viability (201T; first compound 0.01581 µM) was 1.06. The relative viability (201T; first compound 0.05 µM) was 1.03, the relative viability (201T; first compound 0.1581 µM) was 1.06 and the relative viability (201T; first compound 0.5 µM) was 1.06. It also gave a relative viability (CAL-12T; first compound 0.005 µM) of 0.253, a relative viability (CAL-12T; first compound 0.01581 µM) of 0.36 and a relative viability (CAL-12T; first compound 0.05 µM) of 0.573. It also gave a relative viability (CAL-12T; first compound 0.1581 µM) of 0.276, a relative viability (CAL-12T; first compound 0.5 µM) of 0.594 and a relative viability (NCI-H1666; first compound 0.005 µM) of 0.89. It also gave a relative viability (NCI-H1666; first compound 0.01581 µM) of 0.998, a relative viability (NCI-H1666; first compound 0.05 µM) of 0.993 and a relative viability (NCI-H1666; first compound 0.1581 µM) of 1.01. The relative viability (NCI-H1666; first compound 0.5 µM) was 1, the relative viability (NCI-H2170; first compound 0.005 µM) was 0.711 and the relative viability (NCI-H2170; first compound 0.01581 µM) was 0.606. The relative viability (NCI-H2170; first compound 0.05 µM) was 0.661, the relative viability (NCI-H2170; first compound 0.1581 µM) was 0.304 and the relative viability (NCI-H2170; first compound 0.5 µM) was 0.907. It also gave a relative viability (SW 900; first compound 0.005 µM) of 0.174, a relative viability (SW 900; first compound 0.01581 µM) of 0.186 and a relative viability (SW 900; first compound 0.05 µM) of 0.184. For the same molecule, the relative viability (SW 900; first compound 0.1581 µM) was 0.167, the relative viability (SW 900; first compound 0.5 µM) was 0.172 and the relative viability (BEN; first compound 0.005 µM) was 0.337. For the same molecule, the relative viability (BEN; first compound 0.01581 µM) was 0.305, the relative viability (BEN; first compound 0.05 µM) was 0.508 and the relative viability (BEN; first compound 0.1581 µM) was 0.148. It also gave a relative viability (BEN; first compound 0.5 µM) of 0.299, a relative viability (LOU-NH91; first compound 0.005 µM) of 0.334 and a relative viability (LOU-NH91; first compound 0.01581 µM) of 0.333. It also gave a relative viability (LOU-NH91; first compound 0.05 µM) of 0.374, a relative viability (LOU-NH91; first compound 0.1581 µM) of 0.33 and a relative viability (LOU-NH91; first compound 0.5 µM) of 0.35. For the same molecule, the relative viability (HARA; first compound 0.005 µM) was 0.686, the relative viability (HARA; first compound 0.01581 µM) was 0.795 and the relative viability (HARA; first compound 0.05 µM) was 0.75. It also gave a relative viability (HARA; first compound 0.1581 µM) of 0.964, a relative viability (HARA; first compound 0.5 µM) of 0.689 and a relative viability (NCI-H460; first compound 0.005 µM) of 0.0252. The relative viability (NCI-H460; first compound 0.01581 µM) was 0.0365, the relative viability (NCI-H460; first compound 0.05 µM) was 0.0375 and the relative viability (NCI-H460; first compound 0.1581 µM) was 0.0404. It also gave a relative viability (NCI-H460; first compound 0.5 µM) of 0.0362, a relative viability (NCI-H2009; first compound 0.005 µM) of 1.04 and a relative viability (NCI-H2009; first compound 0.01581 µM) of 1.01. It also gave a relative viability (NCI-H2009; first compound 0.05 µM) of 0.973, a relative viability (NCI-H2009; first compound 0.1581 µM) of 1.04 and a relative viability (NCI-H2009; first compound 0.5 µM) of 0.984. The relative viability (NCI-H727; first compound 0.005 µM) was 0.349, the relative viability (NCI-H727; first compound 0.01581 µM) was 0.59 and the relative viability (NCI-H727; first compound 0.05 µM) was 0.468. The relative viability (NCI-H727; first compound 0.1581 µM) was 0.528, the relative viability (NCI-H727; first compound 0.5 µM) was 0.609 and the relative viability (NCI-H1437; first compound 0.005 µM) was 1.14. The relative viability (NCI-H1437; first compound 0.01581 µM) was 1.11, the relative viability (NCI-H1437; first compound 0.05 µM) was 1.13 and the relative viability (NCI-H1437; first compound 0.1581 µM) was 1.13. For the same molecule, the relative viability (NCI-H1437; first compound 0.5 µM) was 1.11, the relative viability (PC-14; first compound 0.005 µM) was 0.115 and the relative viability (PC-14; first compound 0.01581 µM) was 0.139. It also gave a relative viability (PC-14; first compound 0.05 µM) of 0.187, a relative viability (PC-14; first compound 0.1581 µM) of 0.15 and a relative viability (PC-14; first compound 0.5 µM) of 0.139. For the same molecule, the relative viability (NCI-H3122; first compound 0.005 µM) was 0.0849, the relative viability (NCI-H3122; first compound 0.01581 µM) was 0.104 and the relative viability (NCI-H3122; first compound 0.05 µM) was 0.0902. The relative viability (NCI-H3122; first compound 0.1581 µM) was 0.0689, the relative viability (NCI-H3122; first compound 0.5 µM) was 0.0976 and the relative viability (NCI-H1650; first compound 0.005 µM) was 0.172. It also gave a relative viability (NCI-H1650; first compound 0.01581 µM) of 0.209, a relative viability (NCI-H1650; first compound 0.05 µM) of 0.213 and a relative viability (NCI-H1650; first compound 0.1581 µM) of 0.178. The relative viability (NCI-H1650; first compound 0.5 µM) was 0.203, the relative viability (LK-2; first compound 0.005 µM) was 0.179 and the relative viability (LK-2; first compound 0.01581 µM) was 0.225. It also gave a relative viability (LK-2; first compound 0.05 µM) of 0.184, a relative viability (LK-2; first compound 0.1581 µM) of 0.233 and a relative viability (LK-2; first compound 0.5 µM) of 0.206. It also gave a relative viability (COR-L 105; first compound 0.005 µM) of 0.669, a relative viability (COR-L 105; first compound 0.01581 µM) of 0.657 and a relative viability (COR-L 105; first compound 0.05 µM) of 1.07. For the same molecule, the relative viability (COR-L 105; first compound 0.1581 µM) was 0.734, the relative viability (COR-L 105; first compound 0.5 µM) was 0.751 and the relative viability (NCI-H441; first compound 0.005 µM) was 0.367. The relative viability (NCI-H441; first compound 0.01581 µM) was 0.446, the relative viability (NCI-H441; first compound 0.05 µM) was 0.308 and the relative viability (NCI-H441; first compound 0.1581 µM) was 0.322. The relative viability (NCI-H441; first compound 0.5 µM) was 0.399, the relative viability (ABC-1; first compound 0.005 µM) was 0.692 and the relative viability (ABC-1; first compound 0.05 µM) was 0.429. For the same molecule, the relative viability (ABC-1; first compound 0.1581 µM) was 0.389 and the relative viability (ABC-1; first compound 0.5 µM) was 0.215.
